One test addresses T1, Rat liver microsomal squalene synthetase (Rattus norvegicus, UniProt Q02769).
T1 construct: Rat liver microsome, the source of enzyme; from tissue; host or cells: rat liver microsomes
T1 sequence (Q02769 1-416): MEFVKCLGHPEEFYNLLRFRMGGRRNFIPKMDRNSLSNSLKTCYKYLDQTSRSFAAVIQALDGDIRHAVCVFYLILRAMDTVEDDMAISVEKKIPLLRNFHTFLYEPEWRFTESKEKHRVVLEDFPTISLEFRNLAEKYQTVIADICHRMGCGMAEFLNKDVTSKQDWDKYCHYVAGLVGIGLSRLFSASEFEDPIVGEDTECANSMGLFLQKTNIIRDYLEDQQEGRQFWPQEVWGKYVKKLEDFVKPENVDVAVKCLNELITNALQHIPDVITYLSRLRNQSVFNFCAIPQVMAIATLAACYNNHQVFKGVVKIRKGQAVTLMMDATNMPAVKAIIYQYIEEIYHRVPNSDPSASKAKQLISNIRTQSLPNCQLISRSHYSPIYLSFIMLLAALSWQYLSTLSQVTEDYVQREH
Nature of the test: In vitro inhibition of squalene synthetase. The settings on record: 10 µM test compound; rat liver microsomes, labelled farnesyl pyrophosphate, 10 minutes at 37 °C; compared to controls with no test compound. The test is classed as biochemical. As to the method:
In vitro inhibition of squalene synthetase may be measured by the following procedure. Rat liver microsomal squalene synthetase activity was measured using farnesyl pyrophosphate as a substrate and quantitating squalene synthesis using labelled farnesyl pyrophosphate and counting the squalene formed. Rat liver microsome, the source of enzyme, was prepared according to the method of Gillies, P. J., et al., Exp. Molc. Pathol. 44: 329-339 (1986), a modification of the procedure of Erickson, S. K., and Cooper, A. D., Metabolism, 29: 991-996 (1980). […] Oxygen was excluded from the closed incubation tube by degassing with nitrogen. The reaction was terminated by the addition of ethanolic KOH and after degassing with N2, the microsomal membranes were solubilized by heating at 60 °C for 30 minutes. The squalene was extracted into hexane, and the squalene was separated from all other radioactive molecules by passage over an activated alumina column. […] The per cent inhibition at a dose of 10 µM (or 1 µM) compared to controls with no test compound was determined. […]
(Liver microsomes are vesicles of endoplasmic reticulum, rich in cytochrome P450 enzymes.)
Usually inhibition stands for the drop in the measured response relative to a control, in per cent. The low end stands for little suppression, the high end for strong suppression. `COC(=O)CN(Cc1ccc(Oc2ccccc2)cc1)C(=O)[C@H]1[C@@H](C(=O)O)[C@H](C(=O)O)[C@@H]1C(=O)N(CC(=O)OC)Cc1ccc(Oc2ccccc2)cc1` [Example 59, (1α,2β,3β,4α)-1,2-Di[N-(4-phenoxybenzyl)-N-(methoxycarbonylmethyl)aminocarbonyl]cyclobutane-3,4-dicarboxylic acid] showed an inhibition at 10 µM of 50%.

On to `CCCN(Cc1ccc(Cn2cccc2)cc1)C(=O)C1C(C(=O)O)C(C(=O)O)C1C(=O)N(CCC)Cc1ccc(Cn2cccc2)cc1` (stereo not drawn) [Example 86D, (1α,2β,3β,4α)-1,2-Di[N-propyl-N-(4,(pyrrol-1-ylmethyl)benzyl)aminocarbonyl]cyclobutane-3,4-dicarboxylic acid], for which the inhibition at 10 µM came to 86%.

Consider `O=C(O)C1C(C(=O)O)C(C(=O)N(Cc2ccccc2)Cc2ccc(Cl)cc2)C1C(=O)N(Cc1ccccc1)Cc1ccc(Cl)cc1` (stereo not drawn) [Example 122B, (1α,2β,3β,4α)-1,2-Di[N-benzyl-N-(4-chlorobenzyl)aminocarbonyl]cyclobutane-3,4-dicarboxylic acid], for which the inhibition at 10 µM came to 57%. As to `O=C(O)[C@H]1[C@H](C(=O)O)[C@H](C(=O)N(CCc2ccccc2)Cc2ccc(Oc3ccccc3)cc2)[C@H]1C(=O)N(CCc1ccccc1)Cc1ccc(Oc2ccccc2)cc1` [Example 56, (1α,2β,3β,4α)-1,2-Di[N-(4-phenoxybenzyl)-N-phenethylaminocarbonyl] cyclobutane-3,4-dicarboxylic acid], the inhibition at 10 µM is 86%. Still for that read-out and setting: next, `CCCN(Cc1ccc(Oc2ccco2)cc1)C(=O)C1C(C(=O)O)C(C(=O)O)C1C(=O)N(CCC)Cc1ccc(Oc2ccco2)cc1` (centres unmarked) [Example 84G]: 89%. `C[C@@H](c1ccccc1)N(Cc1ccc(Oc2ccccc2)cc1)C(=O)[C@H]1[C@@H](C(=O)O)[C@H](C(=O)O)[C@@H]1C(=O)N(Cc1ccc(Oc2ccccc2)cc1)[C@@H](C)c1ccccc1` [Example 34] returned an inhibition at 10 µM of 89%. On to `C#CCN(Cc1ccc(Oc2ccccc2)cc1)C(=O)[C@H]1[C@@H](C(=O)O)[C@H](C(=O)O)[C@@H]1C(=O)N(CC#C)Cc1ccc(Oc2ccccc2)cc1` [Example 27, (1α,2β,3β,4α)-1,2-Di[N-propargyl-N-(4-phenoxybenzyl)aminocarbonyl]cyclobutane-3,4-dicarboxylic acid], for which the inhibition at 10 µM worked out at 79%.

Still in this test, the particulars now being: values marked * in Table 1: 1 µM test compound; rat liver microsomes, labelled farnesyl pyrophosphate, 10 minutes at 37 °C.
As for `O=C(O)CC1C(CC(=O)O)C(C(=O)N(Cc2ccccc2)Cc2ccc(Oc3ccccc3)cc2)C1C(=O)N(Cc1ccccc1)Cc1ccc(Oc2ccccc2)cc1` (stereo not drawn) [Example 128F, (1α,2β,3β,4α)-1,2-Di{N-benzyl-N-[(4-phenoxy)benzyl]aminocarbonyl)cyclobutane-3,4-diacetic acid], testing at 1 µM gave an inhibition of 80%.

For the compound `CCCN(Cc1ccc(Oc2ccccc2)cc1)C(=O)C1C(C(=O)O)C(C(=O)NC(CO)C(=O)O)C1C(=O)N(CCC)Cc1ccc(Oc2ccccc2)cc1` (single isomer, unassigned) [Example 110A, (1α,2β,3β,4α)-1,2-Di[N-propyl-N-(4-phenoxybenzyl)aminocarbonyl]cyclobutane-3.4-dicarboxylic acid mono-Serine amide], the inhibition at 1 µM was found to be 73%. `CCSCCN(Cc1ccc(Oc2ccccc2)cc1)C(=O)C1C(C(=O)O)C(C(=O)O)C1C(=O)N(CCSCC)Cc1ccc(Oc2ccccc2)cc1` (stereo not drawn) [Example 42, (1α,2β,3β,4α)-1,2-Di[N-(2-ethylthioethyl)-N-(4-phenoxybenzyl)aminocarbonyl]cyclobutane-3,4-dicarboxylic acid] registered an inhibition at 1 µM of 81%. Take `CCOC(=O)CCN(Cc1ccc(Oc2ccccc2)cc1)C(=O)[C@H]1[C@@H](C(=O)O)[C@H](C(=O)O)[C@@H]1C(=O)N(CCC(=O)OCC)Cc1ccc(Oc2ccccc2)cc1` [Example 60, (1α,2β,3β,4α)-1,2-Di[N-(4-phenoxybenzyl)-N-(ethoxycarbonylethyl)aminocarbonyl]cyclobutane-3,4-dicarboxylic acid]: the inhibition at 1 µM is 65%.
